This note sets out measurements from patent US20060018825A1, “Probe for diseases with amyloid accumulation, amyloid-staining agent, remedy and preventive for diseases with amyloid accumulation and diagnostic probe and staining agent for neurofibrillary change” (BF RESEARCH INSTITUTE, INC., priority 2003, published 2006).

Entries after “also recorded” stand apart in the source; their conditions may differ.

Series [1] is described as follows: Blood-brain barrier permeability after intravenous administration. It is filed as in vivo. The following applies: Slc:ICR, mouse, not told; mice, two minutes after intravenous administration; read-out: content in Brain (blood-brain barrier permeability). The text has this: (B) Testing of Blood-Brain Barrier Permeability
For series [2], the system named is senile plaques and diffuse plaques (amyloid β-protein) in brain sections. Put plainly: Staining of senile plaques and diffuse plaques in brain sections of an Alzheimer's disease patient. Further details: species or system human. Conditions: for staining properties in sections of the brain of a patient with Alzheimer's disease (senile plaques): 100 μM compound in 50% ethanol, compared with thioflavin S or anti-Aβ antibody 6F/3D on adjacent section; for staining of diffuse plaques in sections of the brain of a patient with Alzheimer's disease: 100 μM compound, diffuse plaques stained with anti-Aβ antibody 6F/3D on adjacent section. The text has this:
(§1) The following explanation is made about testing of staining properties of the compounds of the present invention on brain sections of an Alzheimer's disease patient.
(§2) (1) Temporal lobe or hippocampus specimens of the brain of a patient who had been definitely diagnosed pathologically as Alzheimer's disease and of a normal aged individual were used. These specimens were provided from Fukushimura Hospital, our joint research facility, with the consent to their use for research purpose received from the bereaved family of the patient (BF Research Laboratories Institutional Ethics Board Permission No. RS-99-02).
(§3) (2) The brain tissues embedded in paraffin were sliced 6 or 8 μm thick, extended on slides, and dried. The paraffin-embedded brain sections were deparaffined by washing sequentially with xylene (10 minutes, twice), 100% ethanol (15 minutes, twice), 95% ethanol (15 minutes, twice), and a stream of water (10 minutes).
(§4) (3) Pre-treatment for staining with compounds of the present invention involved treating the sections for eliminating self-fluorescence due to lipofuscin. First, the deparaffined sections were immersed into a 10% formalin solution for 60 minutes and washed with PBS for 5 minutes, followed by immersion into a 0.25% solution of KMnO4 for 90 minutes. After washing twice with PBS for 2 minutes each, the sections were immersed into a solution of 0.1% K2S2O5/oxalic acid for about 30 seconds each, and then washed three times with PBS for 2 minutes each.
(§5) (4) About 150 μl of a 100 μM solution of a compound of the present invention dissolved in 50% ethanol was added dropwise onto the sections and allowed the reaction to be carried out for 10 minutes. The sections were dipped into tap water five times, and then 50% ethanol three to five times, followed by immediate classification. After that, the sections were immersed into PBS for 60 minutes, enclosed with Fluor Save Reagent (Calbiochem), and examined under a fluorescent microscope (Nikon, Eclips E800) . Pictures were taken using a digital camera (Plaroid PDMCII).
Immunostaining was carried out as follows.
(a) Procedures for Immunostaining Amyloid β-Protein:
(1) After the sections were deparaffined, the sections were washed twice in distilled water for 2 minutes each, and tissues were marked with an Immunopen. About 150 μl of formic acid was added dropwise and allowed to stand at room temperature for 5 minutes. The sections were washed with tap water for 5 minutes and immersed into cold PBS-Tween 20 for 2 minutes, and then about 150 μl of a 0.05% trypsin solution was added dropwise and allowed the reaction to be carried out at 37° C. for 15 minutes.
(2) In an ice bath, the sections were washed twice with cold PBS-Tween 20 for 5 minutes each, and two drops of blocking serum were added and allowed the reaction to be carried out at 37° C. for 15 minutes. Excess water was removed, and about 150 μl of 6F/3D, an antibody specific to amyloid β-protein (DAKO; diluted 1:50) was added dropwise and allowed the reaction to be carried out at 37° C. for 1 hour.
(3) Further, after washing five times with cold PBS-Tween 20 for 2 minutes each, two drops of a solution of goat anti-mouse IgG (H+L) conjugated to biotin were added and allowed the reaction to be carried out at 37° C. for 1 hour. After that, the sections were washed three times with cold PBS-Tween 20 for 2 minutes each, and two drops of ABS solution (a streptavidin-biotin-peroxidase complex solution) were added and allowed to stand for 30 minutes. The sections were again washed three times with cold PBS-Tween 20 for 2 minutes each, and about 150 μl of DAB solution (prepared by dissolving 10 mg of DAB in 20 ml of 0.05 mol/l Tris-HCl buffer and adding 100 μl of 3% hydrogen peroxide immediately before use) were added and allowed the color to be developed sufficiently. Then, the sections were washed with distilled water for 1 minute to stop the reaction, enclosed, and examined under a microscope.

The nature of series [3]: Acute toxicity testing by intravenous administration. It is filed as in vivo. Conditions: male Crj:CD1 mice, observed up to 7 days. As for the experimental part: (A) Testing of Acute Toxicity
Acute toxicity of the inventive compounds was determined employing mice by intravenous administration. Male Crj:CD1 mice were used and divided into groups of 4 mice, with an average weight of each group of 31-32 g. […] Up to 7 days after administration, observations were made.

Series [4] relates to neurofibrillary tangles (tau protein) in brain sections. Description: Neurofibrillary tangles staining in brain sections of an Alzheimer's disease patient. Further details: species or system human. Conditions: for specificity of staining to tau protein / neurofibrillary tangles: compared with thioflavin S (FIG. 17).
From the text: as §1, §2, §3, §4, §5
(b) Procedures for Immunostaining Neurofibrillary Tangles:
(1) Immunostaining of neurofibrillary tangles was carried out as follows. After the sections were deparaffined, the sections were washed twice with distilled water for 2 minutes each, tissues were marked with an Immunopen. About 150 μl of 3% hydrogen peroxide (diluted in methanol) was added dropwise and allowed to stand at room temperature for 10 minutes.
(2) The sections were washed twice with cold PBS-Tween 20 for 5 minutes each, and two drops of blocking serum were added and allowed the reaction to be carried out at 37° C. for 30 minutes. Excess water was removed, and two drops of pSer422, an antibody specific to phosphorylated tau (Wako Phosphorylated Tau Immunohistostain Kit 299-57301) and allowed the reaction to be carried out overnight at 4° C.
(3) On the next day, the sections were washed five times with cold PBS-Tween 20 for 2 minutes each, and two drops of a solution of goat anti-rabbit IgG conjugated to biotin were added and allowed the reaction to be carried out at 37° C. for 1 hour. After that, the sections were washed three times with cold PBS-Tween 20 for 2 minutes each, and two drops of ABS solution (a streptavidin-biotin-peroxidase complex solution) were added and allowed to stand for 30 minutes.
(4) The sections were again washed three times with cold PBS-Tween 20 for 2 minutes each, and about 150 μl of DAB solution (prepared by dissolving 10 mg of DAB in 20 ml of 0.05 mol/l Tris-HCl buffer and adding 100 μl of 3% hydrogen peroxide immediately before use) were added and allowed the color to be developed sufficiently. Then, the sections were washed with distilled water for 1 minute to stop the reaction, enclosed, and examined under a microscope. The blocking serum, the solution of goat anti-rabbit IgG conjugated to biotin, and the ABC solution used were those contained in a Phosphorylated Tau Immunohistostain Kit (Wako 299-57301).

A short description of another series: Clearance from the brain. The following applies: in vivo.

Turning to `CNc1ccc(/C=C/C=C/c2nc3ccccc3[nH]2)cc1` [BF-188, 2-[[4-(4-methylamino)phenyl]1,3-butadienyl]benzoimidazole], the tissue uptake at 2 min in series [1] is 4.8 %ID/g. The “staining properties in sections of the brain of a patient with Alzheimer's disease (senile plaques)” value (from here on “staining properties in sections”) in series [2] is recorded as “stains senile plaques”.
On to `CNc1ccc(/C=C/C=C/c2nc3ccccc3o2)cc1` [BF-185, 2-[[4-(4-methylamino)phenyl]-1,3-butadienyl)benzoxazole], for which the tissue uptake at 2 min in series [1] came to 3.9 %ID/g. Also, in series [2], the “staining properties in sections” value was “mainly stains senile plaques”; the “staining of diffuse plaques in sections of the brain of a patient with Alzheimer's disease” value was “stains; also recorded: display affinity also for diffuse plaques and provide their clear staining”. Besides, the “Maximum Tolerated Dose” value in series [3] is given as “≧10 mg/kg”.
Turning to thioflavin S [reference compound], in series [4], the “specificity of staining to tau protein / neurofibrillary tangles” value is “provided enough staining of proteins other than tau protein”. In addition, in series [2], the “staining properties in sections” value is “stains both senile plaques and neurofibrillary tangles”.
For `Nc1ncc(-c2ccc3ccccc3n2)s1` [BF-240, 2-(2-aminothiazol-5-yl)quinoline], in series [4], the “specificity of staining to tau protein / neurofibrillary tangles” value is “high selectivity to neurofibrillary tangles”.
In the case of `CN(C)c1ncc(/C=C/c2nc3ccc(OCCF)cc3o2)s1` [BF-227, 2-[2-(2-dimethylaminothiazol-5-yl)ethenyl]-6-(2-fluoroethyloxy)benzoxazole], in series [2], the “staining properties in sections” value was “mainly stains senile plaques”; the “staining of diffuse plaques in sections of the brain of a patient with Alzheimer's disease” value was “stains; also recorded: display affinity also for diffuse plaques and provide their clear staining”. Moreover, in “Clearance from the brain”, the “clearance from the brain” value is “rapid clearance from the brain”.
As for `CN(C)c1ncc(/C=C/c2nc3ccccc3o2)s1` [BF-197, 2-[2-(2-dimethylaminothiazol-5-yl)ethenyl]benzoxazole], in series [2], the “staining properties in sections” value is given as “mainly stains senile plaques”.
As to `CNc1ccc(/C=C/C=C/c2nc3ccccc3s2)cc1` [BF-187, 2-[[4-(4-methylamino)phenyl]-1,3-butadienyl)benzothiazole], the tissue uptake at 2 min in series [1] was determined as 3.6 %ID/g. Moreover, the “staining properties in sections” value in series [2] was “stains senile plaques”. The “Maximum Tolerated Dose” value in series [3] is listed as “≧10 mg/kg”.
As for `CN(C)c1ncc(-c2ccc3ccccc3n2)o1` [BF-221, 2-(2-dimethylaminooxazol-5-yl)quinoline], in series [4] (adjacent section immunostained with pSer422 (FIG. 18)), the “staining of phosphorylated tau protein recognized by antibody pSer422” value is reported as “stained phosphorylated tau protein”. For the same molecule, in series [4], the “specificity of staining to tau protein / neurofibrillary tangles” value is “high specificity to tau protein”.
Regarding `CN(C)c1ncc(/C=C/c2nc3ccccc3s2)s1` [BF-196, 2-[2-(2-dimethylaminothiazol-5-yl)ethenyl]benzothiazole], in series [2], the “staining properties in sections” value is “mainly stains senile plaques”.
`CN(C)c1ncc(-c2nc3ccccc3o2)s1` [BF-225, 2-(2-dimethylaminothiazol-5-yl)benzoxazole]: in series [3], the “Maximum Tolerated Dose” value is “≧10 mg/kg”.
In the case of `CNc1ccc(/C=C/C=C/C=C/c2ccc3ccccc3n2)cc1` [BF-189, 1-(4-methylaminophenyl)-6-(2-quinolyl)-1,3,5-hexatrien], the “staining properties in sections” value in series [2] is listed as “stains senile plaques”.
In the case of `Nc1cnc(-c2ccc3ccccc3n2)o1` [BF-255], in series [4], the “specificity of staining to tau protein / neurofibrillary tangles” value is reported as “high selectivity to neurofibrillary tangles”.
Same read-out and setting: then `Nc1ncc(-c2ccc3ccccc3n2)o1` [BF-239, 2-(2-aminooxazol-5-yl)quinoline], with “high selectivity to neurofibrillary tangles”.
With `Cc1nc(/C=C/c2cnc(N(C)C)s2)oc1C` [BF-214, 2-(dimethylamino)-5-[2-(4,5-dimethyloxazol-2-yl)ethenyl]thiazole], the “staining properties in sections” value in series [2] is “stains senile plaques”.
Turning to `Nc1ccc(/C=C/C=C/c2nc3ccc(O)cc3o2)c(O)c1` [BF-201], the “staining properties in sections” value in series [2] is recorded as “stains senile plaques”. Also, in series [3] (mouse, in vivo, read-out: Maximum Tolerated Dose), the MTD at 7 days is at least 10 mg/kg.
For the molecule `O=C(O)c1cc(/C=C/c2ccc(/C=C/c3ccc(O)c(C(=O)O)c3)c(Br)c2)ccc1O` [BSB, reference compound], the “staining properties in sections” value in series [2] was “stains both senile plaques and neurofibrillary tangles”.
